What all share (type): physicochemical
The nature of series [1]: solubility in the oil phase of cream (oleyl alcohol/miglyol 812 4:6).
Series [2] can be described thus: solubility of the crystal forms in water and organic solvents.
Series [3] is described as follows: dissolution in the oil phase in the preparation of a cream. The conditions noted are these: for time to dissolve in the oil phase: preparation of a cream. From the text: The availability of well-defined crystalline forms of the compound of formula I is therefore particularly indicated for use in the preparation of galenical forms of the compound where it is indicated to overcome the above disadvantages, such as in the preparation of topical forms, e.g. creams, emulsions and ointments where it is desired to include the compound normally in dissolved state but under carefully controlled conditions. Thus in the preparation of a cream, it has been observed that Form A dissolves in the oil phase in about 10 minutes, whereas for Form B it takes about 6 hours.
(§1) During the preparation of these preformulations, it is observed that the solving speed of crystal Form B in the oily phase of the cream is much slower than that of crystal Form A. Immediately after manufacturing, the forms are investigated and no remaining crystals are observed.

The nature of series [4]: hygroscopicity (uptake determined by thermogravimetry). How it is done:
hygroscopicity (uptake determined by thermogravimetry): 1.49% (1 day, 92% r.h.); 1.78% (1 week, 25° C., 75% r.h.); hygroscopicity(uptake determined by thermogravimetry): 1 day, 92% r.h. and 1 week, 25° C., 75% r.h.: none;

Series [5] is described as follows: solubilization of Forms A and B in 1% creams; examination for crystals after manufacturing and storage. The conditions noted are these: room temperature; estimated. On the procedure:
a) The solubility of Form A in a cream formulation is estimated to be about 1% at room temperature. In the manufacturing of cream, the drug substance is completely dissolved in the oily phase at 60-75°. To assess whether and after which storage time part of the drug substance dissolved will crystallize from the 1% cream, a series of batches is examined for crystals.
The drug substance used in the batches and preformulations mentioned above contained 100% Form A.
b) To assess whether drug substance containing Form B can be completely dissolved in the manufacturing of cream and to evaluate the long-term crystallization behaviour, several preformulations (cream, 1%) containing 0%, 1%, 5% and 10% Form B relative to the total content of compound of formula I are manufactured and put on stability testing at different temperatures.
as §1
To get information about the long-term crystallization behaviour of these forms, the stability samples are further investigated after 6 weeks, 3, 6 and 9 months storage.

The nature of series [6]: thermodynamic stability of the crystal forms. The following applies: compared with Form A.

Converted amounts (≈) assume the structure as drawn. Read-outs that look alike come from different tables or passages of the source.

As for `CC[C@@H]1/C=C(\C)C[C@H](C)C[C@H](OC)[C@H]2O[C@@](O)(C(=O)C(=O)N3CCCC[C@H]3C(=O)O[C@H](/C(C)=C/[C@@H]3CC[C@H](Cl)[C@H](OC)C3)[C@H](C)[C@@H](O)CC1=O)[C@H](C)C[C@@H]2OC` [Form A, 33-epichloro-33-desoxyascomycin], the “solubility in the oil phase of cream” value in series [1] worked out at 2.49%. Moreover, the solubility (as a rule, the concentration that dissolves in the medium under given conditions) in series [2] (acetone, 25 °C, organic solvent or mixture, at 25° C., read-out: solubility in acetone) is above 50 mg/mL; in series [2] (acetonitrile, 25 °C, organic solvent or mixture, at 25° C., read-out: solubility in acetonitrile), above 50 mg/mL; in series [2] (ethanol, 25 °C, organic solvent or mixture, at 25° C., read-out: solubility in ethanol), above 50 mg/mL; in series [2] (ethyl acetate, 5 °C, organic solvent or mixture, at 5° C., read-out: solubility in ethyl acetate), above 100 mg/mL; in series [2] (ethyl acetate, 25 °C, organic solvent or mixture, at 25° C., read-out: solubility in ethyl acetate), above 50 mg/mL; in series [2] (isopropanol, 25 °C, organic solvent or mixture, at 25° C., read-out: solubility in isopropanol) it was above 50 mg/mL. The solubility in series [2] (methanol, 25 °C, organic solvent or mixture, at 25° C., read-out: solubility in methanol) is above 50 mg/mL. In series [2] (at 5° C.), this compound displayed a solubility in diethylether above 100 mg/mL. In addition, the “solubility in diisopropyl ether” value in series [2] (at 5° C.) was above 100 mg/mL. The compound further came in with a solubility in ethanol in series [2] (at 5° C.) above 100 mg/mL. The compound further displayed a solubility in hexane in series [2] (at 5° C.) below 10 mg/mL. In series [2] (at 5° C.), the solubility in methanol was above 100 mg/mL. The solubility in water result was “insoluble” in series [2] (at 5° C., result in words) and below 1 mg/mL in series [2] (at 25° C.). Besides, the “time to dissolve in the oil phase” value in series [3] was “about 10 minutes”. In addition, the “hygroscopicity (uptake determined by thermogravimetry)” value (from here on “hygroscopicity”) was determined as 1.78% in series [4] (1 week, 25° C., 75% r.h.) and 1.49% in series [4] (1 day, 92% r.h.). In addition, the “solubility in a cream formulation” value in series [5] is listed as “about 1%”.
`CC[C@@H]1/C=C(\C)C[C@H](C)C[C@H](OC)[C@H]2O[C@@](O)(C(=O)C(=O)N3CCCC[C@H]3C(=O)O[C@H](/C(C)=C/[C@@H]3CC[C@H](Cl)[C@H](OC)C3)[C@H](C)[C@@H](O)CC1=O)[C@H](C)C[C@@H]2OC` [Form B, 33-epichloro-33-desoxyascomycin]: the thermodynamic stability entry in series [6] is “thermodynamically a more stable form than Form A”. The “solubility in the oil phase of cream” value in series [1] was determined as 0.37%. In series [2] (at 5° C.), the solubility in diethylether is 9.3 mg/mL (≈ 11.5 mM), the “solubility in diisopropyl ether” value amounted to 1.9 mg/mL (≈ 2.34 mM), the solubility in ethanol was found to be 18.1 mg/mL (≈ 22.3 mM) and the “solubility in ethyl acetate” value was above 50 mg/mL. In series [2] (at 5° C.), the solubility in hexane stood at 0.8 mg/mL (≈ 0.987 mM) and the solubility in methanol amounted to 46.3 mg/mL (≈ 57.1 mM). Also, in series [2] (at 25° C.), the solubility in ethanol amounted to 34.4 mg/mL (≈ 42.4 mM), the “solubility in ethyl acetate” value is above 50 mg/mL, the solubility in methanol is above 50 mg/mL and the solubility in water is 0.4 mg/mL (≈ 0.494 mM). Besides, the solubility in series [2] (diethyl ether, 25 °C, organic solvent or mixture, at 25° C., read-out: solubility in diethyl ether) came to 16.3 mg/mL (≈ 20.1 mM). Besides, the solubility in series [2] (diisopropyl ether, 25 °C, organic solvent or mixture, at 25° C., read-out: solubility in diisopropyl ether) was 3.1 mg/mL (≈ 3.82 mM). Moreover, the solubility in series [2] (hexane, 25 °C, organic solvent or mixture, at 25° C., read-out: solubility in hexane) is 1.5 mg/mL (≈ 1.85 mM). In addition, the solubility in series [2] (water, 5 °C, water, at 5° C., read-out: solubility in water) was found to be 0.3 mg/mL (≈ 0.37 mM). For the same compound, the “solving speed in the oily phase of the cream” value in series [3] (preparation of 1% cream preformulations, compared with Form A) is “much slower”. For the same compound, the “time to dissolve in the oil phase” value in series [3] is given as “about 6 hours”. Further, the “hygroscopicity” value in series [4] (1 week, 25° C., 75% r.h., result in words) is reported as “none”. The “hygroscopicity” value in series [4] (1 day, 92% r.h., result in words) is on record as “none”.

Values taken from patent US6423722B1, “Crystalline macrolides and process for their preparation” (Novartis AG, priority 1997, dated 2002).
